Measured values taken from ChEMBL document CHEMBL1201862, “PubChem BioAssay data set” (2004).
Where “and” joins values, the source holds several entries; their conditions need not be identical. Identical values can stand only once. Calls of active or inactive are those of the source.

Columns and labels:
[1] = inhibition of Env-driven cell fusion – HIV entry, plate reader, dry powder, dose response (AID 687023); assay type: functional, cell-based
[2] = viability loss in CEM21 cells – cell-based, plate reader, dry powder, cytotoxicity control, dose response (AID 687026); assay type: functional
[3] = molecular target: Delta-type opioid receptor (Homo sapiens, UniProt P41143); assay: Late-stage results from the probe development effort to identify antagonists of OPRK1: fluorescence-based cell-based dose response OPRD1 counterscreen.; assay type: functional
Delta-type opioid receptor, sequence (P41143 whole entry): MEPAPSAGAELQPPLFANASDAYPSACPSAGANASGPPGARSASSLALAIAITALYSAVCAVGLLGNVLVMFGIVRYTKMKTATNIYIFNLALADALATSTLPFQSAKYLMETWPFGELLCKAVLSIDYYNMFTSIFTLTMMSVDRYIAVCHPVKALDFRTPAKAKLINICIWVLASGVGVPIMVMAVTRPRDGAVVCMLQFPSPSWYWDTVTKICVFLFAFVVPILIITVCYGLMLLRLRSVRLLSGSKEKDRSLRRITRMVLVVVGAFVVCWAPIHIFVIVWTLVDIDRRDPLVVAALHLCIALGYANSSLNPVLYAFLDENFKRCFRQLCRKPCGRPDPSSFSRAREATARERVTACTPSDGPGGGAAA

Mu-type opioid receptor = Mu-type opioid receptor (Homo sapiens, UniProt P35372); assay: Late-stage results from the probe development effort to identify antagonists of OPRK1: luminescence-based cell-based dose response OPRM1 counterscreen.; assay type: functional
Mu-type opioid receptor, sequence (P35372 whole entry): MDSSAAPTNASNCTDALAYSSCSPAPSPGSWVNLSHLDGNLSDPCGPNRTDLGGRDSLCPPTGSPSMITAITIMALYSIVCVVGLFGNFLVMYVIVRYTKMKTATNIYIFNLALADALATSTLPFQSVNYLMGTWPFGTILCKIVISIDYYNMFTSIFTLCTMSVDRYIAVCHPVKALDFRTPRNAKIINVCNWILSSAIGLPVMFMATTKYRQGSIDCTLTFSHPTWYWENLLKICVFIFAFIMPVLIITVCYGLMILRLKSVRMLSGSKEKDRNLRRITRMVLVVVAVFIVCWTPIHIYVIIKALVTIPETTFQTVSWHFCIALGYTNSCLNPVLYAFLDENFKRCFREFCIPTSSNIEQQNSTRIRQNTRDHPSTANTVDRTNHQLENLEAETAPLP

[4] = ATP-based viability loss in HepG2 cells – cell-based, CellTiter-Glo luminescence, dry powder, set 3, cytotoxicity control, dose response (AID 720594); assay type: functional
[5] = ATP-based viability loss in HeLa cells – cell-based, CellTiter-Glo luminescence, dry powder, set 2, cytotoxicity control, dose response (AID 720593); assay type: functional
[6] = molecular target: Disintegrin and metalloproteinase domain-containing protein 17 (Homo sapiens, UniProt P78536); assay: inhibition of ADAM17 substrate cleavage – biochemical, quenched FRET substrate, counter-screen for ADAM10 exosite inhibitor project, dose response (AID 743253)
[7] = molecular target: 1-phosphatidylinositol 4,5-bisphosphate phosphodiesterase beta-3 (Homo sapiens, UniProt Q01970); assay: Fluorescence-based biochemical high throughput dose response assay to identify inhibitors of phospholipase C isozymes (PLC-B3).
1-phosphatidylinositol 4,5-bisphosphate phosphodiesterase beta-3, sequence (Q01970 whole entry): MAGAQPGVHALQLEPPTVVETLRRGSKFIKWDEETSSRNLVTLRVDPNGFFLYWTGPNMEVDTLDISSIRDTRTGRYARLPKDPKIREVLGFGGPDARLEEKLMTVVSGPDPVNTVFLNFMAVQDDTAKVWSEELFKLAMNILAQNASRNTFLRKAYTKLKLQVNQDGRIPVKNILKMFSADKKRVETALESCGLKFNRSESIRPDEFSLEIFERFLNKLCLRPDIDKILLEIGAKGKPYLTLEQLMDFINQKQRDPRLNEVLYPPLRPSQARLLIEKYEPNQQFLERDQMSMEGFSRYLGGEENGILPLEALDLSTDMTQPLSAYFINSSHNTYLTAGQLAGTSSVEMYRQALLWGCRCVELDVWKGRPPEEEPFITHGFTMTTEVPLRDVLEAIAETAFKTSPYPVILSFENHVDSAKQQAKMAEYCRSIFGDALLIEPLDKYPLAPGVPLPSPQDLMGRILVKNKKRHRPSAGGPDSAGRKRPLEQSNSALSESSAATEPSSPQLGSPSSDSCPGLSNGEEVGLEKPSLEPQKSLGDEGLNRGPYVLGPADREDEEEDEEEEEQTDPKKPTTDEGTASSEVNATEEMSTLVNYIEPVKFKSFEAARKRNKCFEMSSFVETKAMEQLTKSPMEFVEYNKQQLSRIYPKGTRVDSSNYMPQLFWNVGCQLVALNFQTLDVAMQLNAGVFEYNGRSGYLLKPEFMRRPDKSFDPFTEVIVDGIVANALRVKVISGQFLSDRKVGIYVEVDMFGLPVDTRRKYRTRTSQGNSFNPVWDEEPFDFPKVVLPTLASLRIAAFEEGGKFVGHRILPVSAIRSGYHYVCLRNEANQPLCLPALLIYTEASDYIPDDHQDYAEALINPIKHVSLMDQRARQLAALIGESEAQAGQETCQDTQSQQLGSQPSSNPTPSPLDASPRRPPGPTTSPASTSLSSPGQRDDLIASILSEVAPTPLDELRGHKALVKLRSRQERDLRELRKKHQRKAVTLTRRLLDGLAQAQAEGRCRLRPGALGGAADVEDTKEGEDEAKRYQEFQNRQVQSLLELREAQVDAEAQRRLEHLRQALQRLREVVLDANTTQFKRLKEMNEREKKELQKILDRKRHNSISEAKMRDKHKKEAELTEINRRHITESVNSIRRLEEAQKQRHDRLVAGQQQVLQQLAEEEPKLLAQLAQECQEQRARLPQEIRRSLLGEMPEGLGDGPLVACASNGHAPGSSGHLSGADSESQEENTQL

[8] = molecular target: 1-phosphatidylinositol 4,5-bisphosphate phosphodiesterase gamma-1 (Homo sapiens, UniProt P19174); assay: Counterscreen for inhibitors of phospholipase C isozymes (PLC-B3): Fluorescence-based biochemical high throughput dose response assay to identify inhibitors of phospholipase C isozymes (PLC-gamma1).
1-phosphatidylinositol 4,5-bisphosphate phosphodiesterase gamma-1, sequence (P19174 whole entry): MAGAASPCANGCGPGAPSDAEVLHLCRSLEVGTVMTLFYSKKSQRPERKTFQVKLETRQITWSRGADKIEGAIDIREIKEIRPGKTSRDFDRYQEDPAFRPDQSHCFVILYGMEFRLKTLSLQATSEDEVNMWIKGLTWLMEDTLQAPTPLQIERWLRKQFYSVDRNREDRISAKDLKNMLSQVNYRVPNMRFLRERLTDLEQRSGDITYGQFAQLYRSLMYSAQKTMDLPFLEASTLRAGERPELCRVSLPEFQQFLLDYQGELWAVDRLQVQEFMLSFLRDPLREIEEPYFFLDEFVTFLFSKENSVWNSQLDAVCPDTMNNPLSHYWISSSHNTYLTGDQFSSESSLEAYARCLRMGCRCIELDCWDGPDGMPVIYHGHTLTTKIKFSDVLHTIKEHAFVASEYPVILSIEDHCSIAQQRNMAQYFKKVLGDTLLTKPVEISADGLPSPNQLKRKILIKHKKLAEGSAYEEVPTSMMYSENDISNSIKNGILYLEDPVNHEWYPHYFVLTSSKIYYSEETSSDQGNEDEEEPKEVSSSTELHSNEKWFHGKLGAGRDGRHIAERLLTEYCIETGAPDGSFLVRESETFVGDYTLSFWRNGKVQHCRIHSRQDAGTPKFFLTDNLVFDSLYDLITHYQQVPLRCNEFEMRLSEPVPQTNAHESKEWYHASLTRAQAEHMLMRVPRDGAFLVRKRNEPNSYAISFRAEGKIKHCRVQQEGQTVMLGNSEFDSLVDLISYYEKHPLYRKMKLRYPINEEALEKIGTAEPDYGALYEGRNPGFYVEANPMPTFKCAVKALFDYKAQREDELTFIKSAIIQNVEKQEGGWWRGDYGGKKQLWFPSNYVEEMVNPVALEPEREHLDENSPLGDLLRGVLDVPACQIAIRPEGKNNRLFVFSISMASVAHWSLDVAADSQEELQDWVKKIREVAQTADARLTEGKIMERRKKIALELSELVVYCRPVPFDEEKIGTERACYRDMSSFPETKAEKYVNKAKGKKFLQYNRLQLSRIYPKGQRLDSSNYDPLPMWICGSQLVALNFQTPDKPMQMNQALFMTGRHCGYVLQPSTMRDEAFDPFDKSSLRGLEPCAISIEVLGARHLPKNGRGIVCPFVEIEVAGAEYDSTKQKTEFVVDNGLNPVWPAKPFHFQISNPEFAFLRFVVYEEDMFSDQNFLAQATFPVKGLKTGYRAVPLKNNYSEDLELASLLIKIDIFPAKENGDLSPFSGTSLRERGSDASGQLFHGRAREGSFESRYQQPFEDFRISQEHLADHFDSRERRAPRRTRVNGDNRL

[9] = potency of ADAM10 substrate cleavage blockers – biochemical, QFRET, dose response (AID 743254);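 further: ADAM10 enzyme with the DM2 quenched FRET peptide as substrate; EDANS fluorescence gain as the protease cuts the substrate; inhibitor potency against ADAM10 proteolytic activity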
INS1 = assay: INS-1E survival protection against cytokine death – cell-based, luminescence, retest, dose response (AID 449756); assay type: functional; conditions: Rattus norvegicus;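 further: cell death triggered by IL-1 beta plus TNF-alpha plus IFN-gamma mixture; protective hits raise ATP signal compared with cytokine alone wells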
[10] = viability of PTEN-deleted HCT116 cells – cell-based, HCT116 PTEN knockout, dose response (AID 1047); assay type: functional;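 further: HCT116 colon tumor cells with PTEN knocked out; cells exposed to compound for 60 hours before readout; potency for loss of cell viability measured by luminescence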
[11] = molecular target: T1, Replicative DNA helicase DnaB (Mycobacterium tuberculosis, UniProt P9WMR3); assay: DnaB intein splicing inhibitors, dose response, biochemical, cell-free fluorescence (AID 449749); assay type: functional
T1 sequence (P9WMR3 whole entry): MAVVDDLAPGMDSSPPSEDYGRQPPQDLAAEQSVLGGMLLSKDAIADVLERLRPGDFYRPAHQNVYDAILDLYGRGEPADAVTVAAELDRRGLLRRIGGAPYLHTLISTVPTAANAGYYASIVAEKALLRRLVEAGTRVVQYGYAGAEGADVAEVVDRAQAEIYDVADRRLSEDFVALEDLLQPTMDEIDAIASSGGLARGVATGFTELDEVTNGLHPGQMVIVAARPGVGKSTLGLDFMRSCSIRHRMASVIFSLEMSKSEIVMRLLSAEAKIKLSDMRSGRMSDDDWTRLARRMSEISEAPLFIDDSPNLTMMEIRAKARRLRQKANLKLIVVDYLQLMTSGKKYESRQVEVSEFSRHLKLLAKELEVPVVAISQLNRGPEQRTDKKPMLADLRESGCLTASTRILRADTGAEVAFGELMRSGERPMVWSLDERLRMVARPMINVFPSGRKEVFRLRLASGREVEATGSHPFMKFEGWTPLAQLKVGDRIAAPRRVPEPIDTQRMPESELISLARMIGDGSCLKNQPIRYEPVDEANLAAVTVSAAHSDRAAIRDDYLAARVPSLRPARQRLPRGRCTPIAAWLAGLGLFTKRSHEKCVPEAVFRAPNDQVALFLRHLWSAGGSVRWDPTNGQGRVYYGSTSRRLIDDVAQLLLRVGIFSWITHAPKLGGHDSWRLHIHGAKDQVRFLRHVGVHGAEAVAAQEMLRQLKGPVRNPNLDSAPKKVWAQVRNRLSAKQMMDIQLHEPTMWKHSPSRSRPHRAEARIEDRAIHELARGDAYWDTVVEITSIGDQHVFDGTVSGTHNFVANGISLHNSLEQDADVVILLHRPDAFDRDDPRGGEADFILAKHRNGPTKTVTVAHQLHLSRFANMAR

[12] = alpha-synuclein stem-loop luciferase translation blockers – H4 neuroglioma cells, luminescence, confirmation (AID 1988); assay type: functional, cell-based
[13] = luciferase reporter signal suppression in cells – H4 neuroglioma cells, luminescence, dose response (AID 1990); assay type: functional, cell-based
[14] = cytotoxicity in MITF-independent A375 cells – cell-based, CellTiter-Glo luminescence, dry powder, set 4, counter-screen for MITF inhibitor project, dose response (AID 624364); assay type: functional; conditions: A-375;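 further: A375 melanoma cells are MITF independent so this is a counter screen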
[15] = molecular target: T2, Microphthalmia-associated transcription factor (Homo sapiens, UniProt O75030); assay: reducers of TRPM1 reporter luminescence, concentration series – cell-based, SK-MEL-5, cherry-picked, set 3, MITF inhibitor project, dose response (AID 493073); assay type: functional;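 further: SK-MEL-5 melanoma cells with luciferase driven by the MITF target TRPM1 promoter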
T2 sequence (O75030 whole entry): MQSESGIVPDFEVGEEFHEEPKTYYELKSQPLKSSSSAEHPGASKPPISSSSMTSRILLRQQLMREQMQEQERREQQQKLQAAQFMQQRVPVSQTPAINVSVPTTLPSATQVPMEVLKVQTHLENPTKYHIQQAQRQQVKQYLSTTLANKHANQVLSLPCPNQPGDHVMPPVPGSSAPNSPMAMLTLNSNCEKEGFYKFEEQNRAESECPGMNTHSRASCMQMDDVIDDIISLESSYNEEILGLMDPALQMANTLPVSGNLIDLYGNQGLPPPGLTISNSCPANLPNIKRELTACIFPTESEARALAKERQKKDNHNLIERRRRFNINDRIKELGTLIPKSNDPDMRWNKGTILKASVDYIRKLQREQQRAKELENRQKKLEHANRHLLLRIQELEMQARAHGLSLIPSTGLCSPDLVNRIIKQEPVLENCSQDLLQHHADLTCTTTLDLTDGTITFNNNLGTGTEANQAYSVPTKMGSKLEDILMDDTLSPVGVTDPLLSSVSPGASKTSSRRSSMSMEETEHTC

Protein RecA = molecular target: T3, Protein RecA (Mycobacterium tuberculosis, UniProt P9WHJ3); assay: Fluorescence Cell-Free Homogeneous Dose Retest to Identify Inhibitors of RecA-Intein Splicing Activity. [Related pubchem assays (depositor defined):AID2097, AID2223, AID489010, AID492950]; assay type: functional
T3 sequence (P9WHJ3 whole entry): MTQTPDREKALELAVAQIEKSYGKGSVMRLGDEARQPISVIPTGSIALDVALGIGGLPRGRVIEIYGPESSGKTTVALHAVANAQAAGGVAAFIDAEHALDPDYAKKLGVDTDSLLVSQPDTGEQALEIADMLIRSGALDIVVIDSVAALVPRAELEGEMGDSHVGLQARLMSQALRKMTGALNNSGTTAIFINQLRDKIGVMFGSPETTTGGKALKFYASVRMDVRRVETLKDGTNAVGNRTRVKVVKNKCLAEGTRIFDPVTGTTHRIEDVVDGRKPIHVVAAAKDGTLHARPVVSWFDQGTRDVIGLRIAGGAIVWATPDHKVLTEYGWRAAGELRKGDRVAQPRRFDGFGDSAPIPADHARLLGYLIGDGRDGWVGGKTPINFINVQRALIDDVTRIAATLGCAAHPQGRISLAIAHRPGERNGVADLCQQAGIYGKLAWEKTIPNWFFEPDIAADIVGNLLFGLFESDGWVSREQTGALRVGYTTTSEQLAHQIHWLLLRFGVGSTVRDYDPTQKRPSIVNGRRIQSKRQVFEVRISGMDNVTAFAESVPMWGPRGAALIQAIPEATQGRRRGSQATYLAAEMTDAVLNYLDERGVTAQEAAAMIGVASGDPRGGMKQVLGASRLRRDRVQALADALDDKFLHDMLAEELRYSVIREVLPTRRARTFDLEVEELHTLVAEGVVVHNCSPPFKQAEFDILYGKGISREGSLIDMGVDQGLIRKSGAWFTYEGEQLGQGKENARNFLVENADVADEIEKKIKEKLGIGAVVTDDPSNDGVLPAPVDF

[16] = HEK-293T viability loss after treatment – luminescence, T-cell screen hits, cytotoxicity control for TCR NF-kB inhibitor project, dose response (AID 489026); assay type: functional, cell-based;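 further: cells exposed to compound about 14 hours before the viability readout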
[17] = molecular target: Lysine-specific demethylase 4C (Homo sapiens, UniProt Q9H3R0); assay: inhibition of JMJD2C H3K9me3 demethylation – biochemical, DELFIA europium, cherry-picked samples, dose response (AID 488835); assay type: functional
Lysine-specific demethylase 4C, sequence (Q9H3R0 whole entry): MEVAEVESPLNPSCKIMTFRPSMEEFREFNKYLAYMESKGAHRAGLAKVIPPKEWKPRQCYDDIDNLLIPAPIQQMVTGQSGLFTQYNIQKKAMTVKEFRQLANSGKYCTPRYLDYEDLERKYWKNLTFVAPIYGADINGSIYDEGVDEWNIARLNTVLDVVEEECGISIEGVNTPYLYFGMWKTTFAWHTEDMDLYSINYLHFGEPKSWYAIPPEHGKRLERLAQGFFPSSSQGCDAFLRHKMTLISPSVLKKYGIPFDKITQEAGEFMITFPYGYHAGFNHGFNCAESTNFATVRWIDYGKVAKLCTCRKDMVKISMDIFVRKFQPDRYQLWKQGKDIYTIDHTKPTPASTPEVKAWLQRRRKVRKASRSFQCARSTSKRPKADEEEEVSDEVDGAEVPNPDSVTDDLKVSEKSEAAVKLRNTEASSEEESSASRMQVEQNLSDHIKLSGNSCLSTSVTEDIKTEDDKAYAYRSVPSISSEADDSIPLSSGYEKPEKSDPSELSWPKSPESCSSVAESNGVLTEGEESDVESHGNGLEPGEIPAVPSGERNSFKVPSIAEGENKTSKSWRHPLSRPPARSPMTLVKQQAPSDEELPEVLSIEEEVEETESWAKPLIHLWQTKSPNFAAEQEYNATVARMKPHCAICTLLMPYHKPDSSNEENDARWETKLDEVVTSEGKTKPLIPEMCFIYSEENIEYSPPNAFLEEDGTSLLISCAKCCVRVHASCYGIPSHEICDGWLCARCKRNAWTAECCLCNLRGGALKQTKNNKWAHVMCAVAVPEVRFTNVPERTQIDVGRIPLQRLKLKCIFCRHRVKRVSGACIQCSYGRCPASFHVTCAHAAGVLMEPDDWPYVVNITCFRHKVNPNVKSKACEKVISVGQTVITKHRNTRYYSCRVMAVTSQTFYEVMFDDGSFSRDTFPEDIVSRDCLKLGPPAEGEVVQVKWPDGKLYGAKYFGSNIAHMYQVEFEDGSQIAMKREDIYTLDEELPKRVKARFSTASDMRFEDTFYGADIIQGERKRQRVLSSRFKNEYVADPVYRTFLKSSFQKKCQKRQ

[18] = viability of HCT116 lacking mutant beta-catenin – cell-based, human colon tumor, dose response (AID 1045); assay type: functional;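 further: HCT116 colon tumor cells with beta catenin knocked out; cells exposed to compound for 60 hours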
[19] = Luminescence Cell-Based Dose Response HTS to Identify Inhibitors of 5'UTR Stem-Loop Driven Prion Protein mRNA Translation in H4 Neuroglioblastoma Cells. [Related pubchem assays: 1827 (Project Summary), 1813 (Primary HTS)]; assay type: functional
[20] = viability loss in MITF-independent A375 cells – cell-based, CellTiter-Glo luminescence, dry powder, set 2, counter-screen for MITF inhibitor project, dose response (AID 624489); assay type: functional; conditions: A-375;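 further: actives are compounds lowering A375 viability meaning general cytotoxicity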

O=S(=O)(NCc1ccncc1)c1ccc2c(c1)OCCO2
AC50 [1]: 125 nM (active) and 167 nM (active)
AC50 [2]: > 70 µM (inactive)

COC(=O)c1cc(I)cnc1N1CCC(NC2CCCCC2)CC1
IC50 [3]: 2.5 µM (active)
IC50 (Mu-type opioid receptor): 0.479 µM (active)

COc1ccc(-c2nnc(NC(=O)c3ccc(S(=O)(=O)N4CCC(C)CC4)cc3)o2)cc1
AC50 [4]: > 52 µM (inactive)
AC50 [5]: > 52 µM (inactive)

CN1C(=O)c2cc(NC(=O)Nc3ccccc3F)ccc2OC[C@H]2O[C@@H](CC(=O)NCc3ccc(-c4ccccc4)cc3)CC[C@@H]21
IC50 [6]: > 69.5 µM (inactive)
IC50 [7]: > 122 µM (inactive)
IC50 [8]: > 122 µM (inactive)
IC50 [9]: > 69.5 µM (inactive)

CC(=O)N(C)C1=C(N2CCOCC2)C(=O)c2ccccc2C1=O
AC50 (INS1): 1.67 µM (active)
EC50 [10]: 1.91 µM (active)
AC50 [11]: 51.3 µM (active)
EC50 [12]: 7.74 µM (active)
EC50 [13]: 10.8 µM (active)
AC50 [14]: 32.1 µM (active)
AC50 [15]: 3.5 µM (active)
EC50 (Protein RecA): 38.4 µM (active)
IC50 [16]: 4.03 µM (active)
AC50 [17]: 31.2 µM (active)
EC50 [18]: 1.81 µM (active)
EC50 [19]: 11.7 µM (active)
AC50 [20]: 13.9 µM (active)
